Assay results reported in patent publication US12691124B2, “Methods of controlling and improving brain health” (ICAHN SCHOOL OF MEDICINE AT MOUNT SINAI, priority 2019, dated 2026).

How the values were obtained:
[1] = test system: primary microglia exposed to lipopolysaccharide (LPS); assay: LPS-induced gene expression in primary microglia pretreated with IBET858; assay type: cell-based, mouse
Method: Primary Microglia Culture. Postnatal day 0 C57/Bl6 mice were decapitated in ice cold HBSS. The forebrain was rapidly dissected and treated as above in order to generate a single cell suspension. 60,000 cells per cm2 were seeded in vented, Poly-D-lysine coated flasks. Mixed glial cultures were maintained in DMEM containing 10% FBS and 1% penicillin/streptomycin for 3 weeks. After three weeks, microglia were isolated by shaking the mixed glial cultures for 4 hours at 360 rpm and re-plated at density on 100,0000 cells/cm2. Cultures were given 24 hours to settle before treatment. Cultures were pre-treated for 30 minutes with either DMSO (0.01%) or 1 uM IBET858. After 30 minutes, LPS (100 ng/ml) was added to the cultures. RNA was isolated with Trizol LS according to the manufacturer's recommendations after 1, 4 and 12 hours of LPS treatment.
To understand if BET proteins regulate the dynamic induction of pro-inflammatory gene networks, primary microglia were exposed to the bacterial cell wall component lipopolysaccharide, LPS. T, which is recognized by Tlr4, triggers a signal cascade that leads to an extensive increase in cytokine and chemokine production which causes significant damage to host tissues if left unrestrained. Nicodeme et al., “Suppression of Inflammation by a Synthetic Histone Mimic,” Nature 468:1119-1123 (2010), which is hereby incorporated by reference in its entirety. As before, microglial identity genes Tyrobp, Hexb and Trem2 were unaffected by IBET858 (FIG. 4B). As expected, LPS causes a time-dependent increase in pro-inflammatory gene expression in microglia (FIGS. 4C-4E). […] BET inhibition specifically decreases the expression of inflammatory genes (Il6, Cd33, and Nlrp3), interferon response pathway (Ifnb, Irf2/9, Mx1) and cell death mediators (Bid, Casp1/4/7/12, Traf1). […] Nicodeme et al., “Suppression of Inflammation by a Synthetic Histone Mimic,” Nature 468:1119-1123 (2010), which is hereby incorporated by reference in its entirety.

primary cortical neurons [2] = assay: Polar metabolite mass spectrometry in primary cortical neurons; assay type: cell-based, mouse
Method: Mass Spectrometry. Cell culture plates (2e6 cells per well n=7-8 per group) were washed with 75 mM Ammonium bicarbonate, pH 7.4, warmed to 37 degrees. Plates were quenched on liquid nitrogen for 10 seconds and then placed on dry ice. 1 ml of 70% Ethanol in MS-grade water was warmed to 75 degrees and added to each well. Plates were incubated in a 75 degree water bath for 3 minutes, shaking gently every minute. After 3 minutes, plates were placed on dry ice and once cooled, supernatants were lyophilized using the speed vacuum and stored at −80 degrees. Samples were shipped on dry ice to Cellzome who processed the samples for mass spectrometry and performed the initial analysis annotating metabolites. A semi-quantitative approach was used which determines the metabolite levels relative to a control rather than absolute concentrations. All detected ions were used for statistical analysis regardless of how many samples they were detected. This allows for the identification of low-abundant metabolites that may be present in only a subset of samples.
If IBET858 is indeed decreasing metabolism as indicated, comprehensive metabolic changes after BET inhibition should be observed. Therefore, an unbiased analysis of polar metabolites via mass spectrometry was employed (FIGS. 12A-12C). Accordingly, the levels of 100-150 unique metabolites are changed by chronic BET inhibition in primary cortical neurons.

primary cortical neurons [3] = assay: Seahorse mitochondrial stress test; assay type: cell-based, mouse
Method: Seahorse Mitochondrial Stress Test. In this assay, two fluorescent probes that detect the concentration of oxygen or protons are added to the culture media. Cellular metabolism causes rapid changes in the concentration of these molecules in the media which can be detected by changes in sensor fluorescence. The oxygen consumption rate (OCR) indicates mitochondrial respiration and the extracellular acidification rate (ECAR) is largely due to glycolysis. Certain pathways can be analyzed by the sequential addition of inhibitors to the media and measuring ensuing changes to the OCR and ECAR. First baseline readings are measured to give an understanding of basal metabolic rates. Then the last step of oxidative phosphorylation, the ATP synthase, is inhibited by oligomycin to determine how much oxygen is being used for ATP production. FCCP is next added to decouple the electron transport chain from the ATP synthase by increasing proton permeability of the membrane which drives oxidative phosphorylation to its maximum. Lastly, complex I is inhibited by rotenone to completely shut down mitochondrial respiration. Any oxygen that is consumed after rotenone is due to other cellular processes such as fatty acid metabolism. On the day of the assay, cultures were washed times with artificial CSF (aCSF) [120 mM NaCl, 3.5 mM KCl, 1.3 mM CaCl2, 1 mM MgCl2, 0.4 mM KH2PO4, 5 mM HEPES, 0.4% BSA, 10 mM Sodium-pyruvate, 15 mM Glucose], and incubated at 37° C. without CO2 for one hour prior to assay. Oxygen Consumption rate (OCR) was measured using the Seahorse XFe24 Analyzer (Agilent), under basal conditions and after the sequential addition of […] [carbonyl cyanide p-(trifluoromethoxy) phenylhydrazone], […]. Metrics were calculated according to the following equations. All values were calculated per well and normalized to cell number for each experiment. Each experiment was normalized to the average of all controls across all experiments (n=3) performed.
To understand if this was the case, the major energetic pathway in neurons, mitochondrial respiration, after BET inhibition was assessed using Seahorse technology. […] In addition to lower mitochondrial activity, proton leak which contributes to the production of reactive oxygen species (ROS) is lower after BET inhibition. Because increased ROS levels are detrimental to neuronal health, lower ROS production could also increase neuronal survival after BET inhibition.
Glycolysis also contributes to neuronal metabolism and several key glycolytic metabolites (Fructose 6-phosphate, Glucose-6-phosphate, Phosphoenolpyruvate) were decreased after IBET858. […] Additionally, the decreased maximal responses indicate that this metabolic state is relatively stable.

R6/2 mice = assay: Survival of R6/2 Huntington's mouse model; settings: 30 mg/kg i.p. daily from 6 weeks of age for 5 weeks

In the case of `CC(=O)N1c2ccc(-c3ccc(CN4CCCCC4)cc3)cc2[C@H](Nc2ccccc2)CC1C` (stereo in doubt) [IBET858], the “chemotaxis, cell proliferation and NFkB pathway genes after LPS” value ([1]; 1 μM) is reported as “insensitive”, the “microglial identity genes Tyrobp, Hexb and Trem2 after LPS” value ([1]; 1 μM) is reported as “unaffected” and the LPS gene induction ([1]; 1 μM pretreatment 30 min, LPS 1 h) is reported as “little effect”. The “LPS induced genes inhibited / LPS induced genes” value ([1]; LPS 4 hours) was 514/960, the “LPS induced genes inhibited / LPS induced genes” value ([1]; LPS 12 hours) was 484/747 and the “enrichment of decreased metabolites, Arginine/Proline metabolism (OR)” value (primary cortical neurons [2]; 1 week IBET858) was 26.8. The “enrichment of decreased metabolites, Glutamate metabolism (OR)” value (primary cortical neurons [2]; 1 week IBET858) was 24.4, the “enrichment of decreased metabolites, Tyrosine metabolism (OR)” value (primary cortical neurons [2]; 1 week IBET858) was 30.33 and the “enrichment of decreased metabolites, glycolysis (OR)” value (primary cortical neurons [2]; 1 week IBET858) was 48.8. The “enrichment of decreased metabolites, pentose phosphate pathway (OR)” value (primary cortical neurons [2]; 1 week IBET858) was 42, the “enrichment of increased metabolites, aspartate metabolism pathway (OR)” value (primary cortical neurons [2]; 1 week IBET858) was 23.5 and the “amino acids significantly decreased” value (primary cortical neurons [2]; 1 week IBET858, 13/20) was 65%. The unique metabolites changed (primary cortical neurons [2]; chronic BET inhibition (1 week)) was 100-150 metabolites, the mitochondrial coupling efficiency (primary cortical neurons [3]; 24 h or 1 week IBET858) was “increased coupling efficiency” and the “basal glycolysis (extracellular acidification rate)” value (primary cortical neurons [3]; chronic BET inhibition) was “slightly decreased”. The “basal mitochondrial respiration rates” value (primary cortical neurons [3]; chronic BET inhibition) was “significantly decreases”, the “decrease in ATP production” value (primary cortical neurons [3]; chronic BET inhibition) was 50% and the maximum glycolytic rate (primary cortical neurons [3]; chronic BET inhibition) was “significantly attenuated”. The maximum mitochondrial activity (primary cortical neurons [3]; chronic BET inhibition) was “also decreased”, the proton leak (primary cortical neurons [3]; chronic BET inhibition) was “lower” and the survival (R6/2 mice) was “rescued survival”.
